What was measured:
Plasmin = Plasmin (Homo sapiens, UniProt P00747); assay: Anti-plasmin activity (hydrolysis of TAME); type: biochemical; settings: for IC50: molar concentration inhibiting 50% of TAME hydrolysis, read-out: Plasmin ID50; for inhibition at 10 µM: at 1×10^-5 M, read-out: Plasmin percentage inhibition
Protocol: (§1) The anti-trypsin, anti-plasmin, anti-kallikrein and anti-thrombin activities were determined according to the method of Muramatsu et al. [M. Muramatsu, T. Onishi, S. Makino, Y. Hayashi and S. Fujii, J. of Biochem., 58, 214 (1965)]. […] The compound No. corresponds to the compound number shown in Examples.

Trypsin = molecular target: T1, Trypsin (Bos taurus, UniProt P00760); assay: Anti-trypsin activity (hydrolysis of TAME); type: biochemical; settings: for IC50: molar concentration inhibiting 50% of TAME hydrolysis, read-out: Trypsin ID50
T1 sequence (P00760 24-246): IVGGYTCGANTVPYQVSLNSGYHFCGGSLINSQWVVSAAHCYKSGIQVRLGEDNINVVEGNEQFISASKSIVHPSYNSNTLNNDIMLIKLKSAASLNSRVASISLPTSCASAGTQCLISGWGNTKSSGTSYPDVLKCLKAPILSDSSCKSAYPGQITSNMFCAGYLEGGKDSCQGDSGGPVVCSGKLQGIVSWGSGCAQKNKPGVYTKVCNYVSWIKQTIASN
Protocol: as §1

Kallikrein = assay: Anti-kallikrein activity (hydrolysis of TAME); type: biochemical; settings: at 1×10^-5 M
C1s = molecular target: T2, C1s (Homo sapiens, UniProt P09871); assay: biochemical; settings: ATEE hydrolysis; read-out: Anti-C1 activity, C1s ID50
T2 sequence (P09871 438-688 limits assumed): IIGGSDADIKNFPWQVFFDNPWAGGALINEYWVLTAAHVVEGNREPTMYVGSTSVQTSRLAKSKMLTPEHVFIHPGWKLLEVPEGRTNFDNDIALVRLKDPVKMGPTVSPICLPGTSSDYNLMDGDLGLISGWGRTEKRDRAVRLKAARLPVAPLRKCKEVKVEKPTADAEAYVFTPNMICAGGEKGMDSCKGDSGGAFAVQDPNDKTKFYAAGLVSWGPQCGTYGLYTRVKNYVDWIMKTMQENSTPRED
T2 sequence (P09871 16-437 partner limits assumed): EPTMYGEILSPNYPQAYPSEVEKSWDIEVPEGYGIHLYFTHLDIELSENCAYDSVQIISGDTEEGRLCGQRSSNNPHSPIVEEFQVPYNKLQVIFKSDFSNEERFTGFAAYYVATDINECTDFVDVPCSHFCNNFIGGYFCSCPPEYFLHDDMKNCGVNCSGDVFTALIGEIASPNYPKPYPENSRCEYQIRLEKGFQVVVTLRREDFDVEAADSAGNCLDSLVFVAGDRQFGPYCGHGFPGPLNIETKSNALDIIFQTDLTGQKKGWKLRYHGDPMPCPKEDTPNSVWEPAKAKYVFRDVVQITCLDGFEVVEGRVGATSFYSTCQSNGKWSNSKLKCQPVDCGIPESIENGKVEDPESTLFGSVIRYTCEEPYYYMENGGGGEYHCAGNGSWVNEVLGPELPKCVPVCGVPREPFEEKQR
Protocol: The anti-Cl esterase (Clr, Cls) activity was determined according to the method of Okamura et al. [K. Okamura, M. Muramatsu and S. Fujii, Biochem. Biophys. […] The figures in Table 2 have the following meanings:
Cls: Molar concentration of the test compound which inhibits 50% of the ability of Cls to hydrolyse ATEE (acetyltyrosin ethyl ester).

C1r = molecular target: T3, C1r (Homo sapiens, UniProt P00736); assay: Anti-C1 esterase (C1r) activity (hydrolysis of AAME); type: biochemical; settings: for IC50: AAME hydrolysis, read-out: Anti-C1 activity, C1r ID50
T3 sequence (P00736 464-705 limits assumed): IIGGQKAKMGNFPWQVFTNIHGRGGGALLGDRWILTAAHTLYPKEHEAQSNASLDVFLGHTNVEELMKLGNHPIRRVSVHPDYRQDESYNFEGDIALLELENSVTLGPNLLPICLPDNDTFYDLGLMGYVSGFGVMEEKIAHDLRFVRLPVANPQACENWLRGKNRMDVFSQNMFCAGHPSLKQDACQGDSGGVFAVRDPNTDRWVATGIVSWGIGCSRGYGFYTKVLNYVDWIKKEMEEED
T3 sequence (P00736 18-463 partner limits assumed): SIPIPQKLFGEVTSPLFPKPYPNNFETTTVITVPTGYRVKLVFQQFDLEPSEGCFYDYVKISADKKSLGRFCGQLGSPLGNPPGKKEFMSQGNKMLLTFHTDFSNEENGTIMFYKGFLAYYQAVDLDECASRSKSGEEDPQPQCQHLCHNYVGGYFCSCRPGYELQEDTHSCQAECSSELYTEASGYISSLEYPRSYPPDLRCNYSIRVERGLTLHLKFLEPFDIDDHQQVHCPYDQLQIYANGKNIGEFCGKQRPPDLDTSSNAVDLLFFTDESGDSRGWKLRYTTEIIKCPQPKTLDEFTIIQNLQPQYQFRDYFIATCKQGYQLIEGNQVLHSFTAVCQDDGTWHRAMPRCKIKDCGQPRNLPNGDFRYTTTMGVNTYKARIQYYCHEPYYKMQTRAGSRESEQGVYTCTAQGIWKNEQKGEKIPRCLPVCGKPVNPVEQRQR
Protocol: The anti-Cl esterase ([…]) activity was determined according to the method of Okamura et al. [K. Okamura, M. Muramatsu and S. Fujii, Biochem. Biophys.

Thrombin = Thrombin (Homo sapiens, UniProt P00734); assay: biochemical; settings: for IC50: molar concentration inhibiting 50% of TAME hydrolysis, read-out: Thrombin ID50; for inhibition at 10 µM: at 1×10^-5 M, read-out: Thrombin percentage inhibition
Protocol: The anti-trypsin, anti-plasmin, anti-kallikrein and anti-thrombin activities were determined according to the method of Muramatsu et al. [M. Muramatsu, T. Onishi, S. Makino, Y. Hayashi and S. Fujii, J. of Biochem., 58, 214 (1965)]. The data summarized in Table 1 are expressed in terms of molar concentration (ID50) of the test compound which inhibits 50% of the activity of each enzyme to hydrolyze TAME (tosylalginine methyl ester). The compound No. corresponds to the compound number shown in Examples.

[1] = system: complement mediated hemolysis; assay: Inhibition of complement mediated hemolysis; type: cell-based
Protocol: The principle of this method is based on the fact that hemolysis is caused by the activation of complement, when the latter is added to a complex (immune complex) of erythrocytes and the antibody thereof. The degree of hemolysis varies in proportion to the amount of complement added. Therefore, when a known amount of complement admixed with a C1 esterase inhibitor is used, the hemolysis must be suppressed in proportion to the inhibitory activity.

Chain of Plasmin (P00747 581-810 limits assumed, species assumed): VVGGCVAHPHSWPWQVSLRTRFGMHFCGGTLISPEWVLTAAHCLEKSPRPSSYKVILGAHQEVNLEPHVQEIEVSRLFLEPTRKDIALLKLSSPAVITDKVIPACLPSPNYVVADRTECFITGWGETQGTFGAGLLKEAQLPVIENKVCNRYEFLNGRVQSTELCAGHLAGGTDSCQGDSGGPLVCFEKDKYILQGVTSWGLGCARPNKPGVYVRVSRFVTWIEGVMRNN
Chain of Plasmin (P00747 97-580 partner limits assumed, species assumed): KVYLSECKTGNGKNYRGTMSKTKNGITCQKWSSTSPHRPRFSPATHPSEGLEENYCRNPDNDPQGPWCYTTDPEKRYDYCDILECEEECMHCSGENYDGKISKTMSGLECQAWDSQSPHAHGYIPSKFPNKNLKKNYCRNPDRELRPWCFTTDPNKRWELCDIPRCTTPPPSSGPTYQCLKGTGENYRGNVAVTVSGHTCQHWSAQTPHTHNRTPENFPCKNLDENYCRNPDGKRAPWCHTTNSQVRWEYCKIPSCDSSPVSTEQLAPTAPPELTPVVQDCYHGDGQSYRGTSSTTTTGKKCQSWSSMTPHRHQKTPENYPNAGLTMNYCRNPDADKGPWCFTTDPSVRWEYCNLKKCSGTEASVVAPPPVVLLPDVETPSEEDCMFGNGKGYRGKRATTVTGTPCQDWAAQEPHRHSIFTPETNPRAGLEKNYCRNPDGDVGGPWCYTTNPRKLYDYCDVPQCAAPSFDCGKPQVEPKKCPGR

SMILES	IC50 (Plasmin) [nM]	IC50 (Trypsin) [nM]	Kallikrein percentage inhibition (Kallikrein) [%]	IC50 (C1s) [nM]	IC50 (C1r) [nM]	IC50 (Thrombin) [nM]	Inhibition of complement mediated hemolysis (%) ([1]; 1 × 10^-4)	Inhibition of complement mediated hemolysis (%) ([1]; 1 × 10^-5)	Inhibition of complement mediated hemolysis (%) ([1]; 1 × 10^-6)	Inhibition of complement mediated hemolysis (%) ([1]; 1 × 10^-7)	inhibition at 10 µM (Plasmin) [%]	inhibition at 10 µM (Thrombin) [%]	inhibition at 10 µM (C1r; at 1×10^-5 M, read-out: Anti-C1 activity, C1r percent inhibition) [%]	inhibition at 10 µM (Trypsin; at 1×10^-5 M, read-out: Trypsin percentage inhibition) [%]
N=C(N)c1ccc2cc(OC(=O)c3ccc4c(c3)OCO4)ccc2c1 [Compound 10]	50000	200	31	200	200	4000	97	75	9	2	–	–	–	–
N=C(N)c1ccc2cc(OC(=O)c3ccc(O)cc3)ccc2c1 [Compound 11, 6-amidino-2-naphthyl 4-hydroxybenzoate]	–	300	21	200	100	7000	96	56	6	13	36	–	–	–
CC(=O)Oc1ccc(C(=O)Oc2ccc3cc(C(=N)N)ccc3c2)cc1 [Compound 13]	2000	400	24	300	300	–	94	42	5	4	–	39	–	–
N=C(N)c1ccc2cc(OC(=O)c3ccc(Cl)cc3)ccc2c1 [Compound 16]	500	3000	31	400	–	–	99	77	24	10	–	38	39	–
N#Cc1ccc(C(=O)Oc2ccc3cc(C(=N)N)ccc3c2)cc1 [Compound 19]	3000	–	11	8000	4000	2000	98	86	22	1	–	–	–	47
N=C(N)c1ccc2cc(OC(=O)c3ccc(N)cc3)ccc2c1 [Compound 20, 6-amidino-2-naphthyl 4-aminobenzoate]	–	60	31	200	200	> 10000	95	46	5	0	27	–	–	–
CN(C(=N)N)c1ccc(C(=O)Oc2ccc3cc(C(=N)N)ccc3c2)cc1 [Compound 28, 6-amidino-2-naphthyl 4-(Nα-methyl)guanidinobenzoate]	600	600	20	300	3000	–	100	99	60	6	–	17	–	–
CSc1ccc(C(=O)Oc2ccc3cc(C(=N)N)ccc3c2)cc1 [Compound 30]	2000	2000	41	300	500	4000	14	90	40	6	–	–	–	–
CC(=O)c1ccc(C(=O)Oc2ccc3cc(C(=N)N)ccc3c2)cc1 [Compound 32]	3000	2000	26	3000	2000	4000	93	97	67	22	–	–	–	–
N=C(N)c1ccc2cc(OC(=O)c3cccc(C(F)(F)F)c3)ccc2c1 [Compound 33]	3000	8000	13	3000	1000	–	75	39	7	22	–	40	–	–

— US4532255A, “Amidine compounds and anticomplement agent comprising same” (Torii & Co., Ltd., priority 1980, dated 1985)
